Legend:
A549-Cell-Xenograft = assay: In vivo assay on tumor inhibition (A549 xenograft); parameters: species or system mice; settings: daily dosage of 80 mg/kg, oral, after 23 days of treatment (44 days of experiment), median tumor volume
Procedure: In vivo Assay on Tumor Inhibition:
To generate primary tumors, Non-Small-Cell Lung Cancer (NSCLC) (e.g. Calu-3 (ATTC HTB-55) or A549 (ATTC CCL-185)) cells (4-5.0×10^6 in a volume of 100 μl) are injected subcutaneously into the left flank of female SCID beige (Severe Combined Immunodeficient/beige mice available from Charles River, Sulzfeld, Germany) or BALB/c nude (BALB/c Nude Spontaneous Mutant Mice (homozygotes) available from Taconic Europe, Ry, Denmark) mice. The cells are thawed and expanded in vitro before use in the experiment. Mice are assigned to the treatment groups 14-21 days after cell injection. […] The subcutaneous primary tumors are measured twice weekly, starting prior to randomisation, in two dimensions (length and width) using an electronic caliper. The volume of the primary tumor is calculated using the formula: V[mm^3]=(length [mm]×width [mm]×width [mm])/2. In addition, the body weight of all animals is recorded at least twice weekly. […]
In one example of the above procedure, treatment was started on or about the 20th-21st day of the experiment (after cell injection) and the treatment was carried out for 23 days (about 44 days of experiment). In this example, primary tumor volume was calculated according to NCI protocol (TW=½ ab^2, where a and b were long and short diameters of tumor mass in mm). […] Tumor weight was determined by analytic scale at termination (day 44/45). […]

A549 cells = assay: MTT assay in A549 cells; assay type: cell-based, human; settings: 5 days incubation, 3 μM to 0.15 nM
Procedure: To further show the activity of the compounds according to this invention, their effects on a […] was evaluated using a standard MTT-assay. MTT (3-(4,5-dimethylthiazol-2-yl)-2,5-diphenyl tetrazolium bromide) is widely used for the quantitative determination of cytotoxic effects or in vitro chemosensitivity of tumor cells. The assay is based on the cleavage of the yellow tetrazolium salt (MTT) to purple formazan crystals by metabolic active cells. For details, see Rubinstein, L. V., et al., J. Natl. Cancer Inst. 82 (1990) 1113-1118.
A549 cells (human lung carcinoma cell line ATTC-No. CCL-185) were cultivated in RPMI (Roswell Park Memorial Institute) 1640 medium with GlutaMAX™ I (Invitrogen, Cat-No. 61870-010), 2,5% Fetal Calf Serum (FCS, Sigma Cat-No. F4135 (FBS)); 100 Units/ml penicillin/100 μg/ml streptomycin (=Pen/Strep from Invitrogen Cat. No. 15140). For the assay the cells were seeded in 384 well plates, 900 cells per well, in the same medium. The next day compounds (dissolved 10 mM in dimethylsulfoxide (DMSO)) were added in various concentrations ranging from 3 μM to 0.15 nM (10 concentrations, 1:3 diluted). After 5 days MTT assay was done mainly according to the instructions of the manufacturer (Cell proliferation kit I, MTT, from Roche Molecular Biochemicals). In brief: MTT labeling reagent (3-(4,5-dimethylthiazol-2-yl)-2,5-diphenyltetrazolium bromide (MTT)) was added to a final concentration of 0.5 mg/ml, added and incubated for 4 hrs at 37° C., 5% CO2. During this incubation time purple formazan crystals are formed. After addition of the solubilization solution (20% Sodium Dodecyl Sulfate (SDS) in 0.02 M HCl) the plates were incubated overnight at 37° C., 5% CO2. After careful mixing plates were measured in Victor 2 scanning multiwell spectrophotometer (Wallac) at 550 nm.
A decrease in number of living cells results in a decrease in the total metabolic activity in the sample. The decrease directly correlates to the amount of purple color resulting from the solubilization of the purple formazan crystals.
• A549: 900 cells in 60 μl per well of 384 well plate (Greiner) • Medium: RPMI 1640, 2.5% FCS, glutamine, Pen/Strep. • Incubate 1 day at 37° C.
Induction: • Dilution of compound in DMSO: 3 μl 10 mM+27 μl DMSO, dilute 1:3 • Add 2 μl of compound dilution row to 95 μl of medium • Add 10 μl of compound dilution to 60 μl medium in test plate resulting in 0.3% DMSO per well • Incubate 120 h (5 days) at 37° C., 5% CO2
Analysis: • Add 7 μl MTT (5 mg/7 ml/well), incubate 4 h at 37° C. • Add 30 μl lysis buffer (20% SDS, 0.04 N HCl) per well • Incubate overnight at 37° C.
Measurement: • Victor 2 scanning multiwell spectrophotometer (Wallac) at 550 nm
Determination of IC50 was done using XL-fit (XLfit software (ID Business Solution Ltd., Guilford, Surrey, UK)).

Row | IC50 (A549 cells) [nM] | Compound | Tumor Growth Inhibition (TGI) (A549-Cell-Xenograft) [%]
1 | – | Cc1cc(OCc2coc(/C=C/c3ccc(OC(F)(F)F)cc3)n2)ccc1CCCCc1cnn(C)n1 [Example 3.2, 2-Methyl-4-[4-(2-methyl-4-{2-[(E)-2-(4-trifluoromethoxy-phenyl)-vinyl]-oxazol-4-ylmethoxy}-phenyl)-butyl]-2H-[1,2,3]triazole] | 72
2 | 7 | Cn1nncc1CCCCc1ccc(OCc2coc(/C=C/c3ccc(OC(F)(F)F)cc3)n2)cc1 [Example 1.2, Methyl-5-[4-(4-{2-[(E)-2-(4-trifluoromethoxy-phenyl)-vinyl]-oxazol-4-ylmethoxy}-phenyl)-butyl]-1H-[1,2,3]triazole] | 50
